Patent US20220192195A1, “HERBICIDAL COMPOSITIONS” (SYNGENTA CROP PROTECTION AG, priority 2019, published 2022)

Columns and labels:
Assay in all cases: Post-emergence efficacy (B1), compounds of Formula (I) alone, evaluated after 13 days
Type in all cases: in vivo
[1] = test system: Amaranthus palmeri (AMAPA); details: 500 g/Ha, post-emergence spray
Protocol: (§1) Seeds of a variety of test species were sown in standard laom-based soil in pots: Ipomoea hederacea (IPOHE), Euphorbia heterophylla (EPHHL), Chenopodium album (CHEAL), Amaranthus palmeri (AMAPA), Lolium perenne (LOLPE), Digitaria sanguinalis (DIGSA), Eleusine indica (ELEIN), Echinochloa crus-galli (ECHCG), Setaria faberi (SETFA). After cultivation for 14 days (post-emergence) under controlled conditions in a glasshouse (at 24/16° C., day/night; 14 hours light; 65% humidity), the plants were sprayed with an aqueous spray solution derived from the dissolution of the technical active ingredient Formula (I) in a small amount of acetone and a special solvent and emulsifier mixture referred to as IF50 (11.12% Emulsogen EL360 TM+44.44% N-methylpyrrolidone+44.44% Dowanol DPM glycol ether), to create a 50 g/I solution which was then diluted to required concentration using 0.25% or 1% Empicol ESC70 (Sodium lauryl ether sulphate)+1% ammonium sulphate as diluent. The delivery of the aqueous spray solution was via a laboratory track sprayer which delivered the aqueous spray composition at a rate of 200 litres per hectare, using a flat fan nozzle (Teejet 11002VS) and an application volume of 200 litre/ha (at 2 bar).
(§2) The test plants were then grown in a glasshouse under controlled conditions (at 24/16° C., day/night; 14 hours light; 65% humidity) and watered twice daily. After 13 days the test was evaluated (100=total damage to plant; 0=no damage to plant).

[2] = test system: Chenopodium album (CHEAL); details: 500 g/Ha, post-emergence spray
Protocol: as §1, §2

Eleusine indica (ELEIN) = details: 500 g/Ha, post-emergence spray
Protocol: as §1, §2

[3] = test system: Euphorbia heterophylla (EPHHL); details: 500 g/Ha, post-emergence spray
Protocol: as §1, §2

[4] = test system: Digitaria sanguinalis (DIGSA); details: 312 h, post-emergence spray, read-out: Control of weed species after post-emergence application: DIGSA (100=total damage to plant; 0=no damage to plant)
Protocol: as §1, §2

[5] = test system: Echinochloa crus-galli (ECHCG); details: 312 h, post-emergence spray, read-out: Control of weed species after post-emergence application: ECHCG (100=total damage to plant; 0=no damage to plant)
Protocol: as §1, §2

[6] = test system: Ipomoea hederacea (IPOHE); details: 312 h, post-emergence spray, read-out: Control of weed species after post-emergence application: IPOHE (100=total damage to plant; 0=no damage to plant)
Protocol: as §1, §2

Lolium perenne (LOLPE) = details: 312 h, post-emergence spray, read-out: Control of weed species after post-emergence application: LOLPE (100=total damage to plant; 0=no damage to plant)
Protocol: as §1, §2

Setaria faberi (SETFA) = details: 312 h, post-emergence spray, read-out: Control of weed species after post-emergence application: SETFA (100=total damage to plant; 0=no damage to plant)
Protocol: as §1, §2

Structure (SMILES) | Control of weed species after post-emergence application: AMAPA (100=total damage to plant; 0=no damage to plant) [1] | Control of weed species after post-emergence application: CHEAL (100=total damage to plant; 0=no damage to plant) [2] | Control of weed species after post-emergence application: ELEIN (100=total damage to plant; 0=no damage to plant) (Eleusine indica (ELEIN)) | Control of weed species after post-emergence application: EPHHL (100=total damage to plant; 0=no damage to plant) [3] | pest or weed control at 500 g/ha [4] [%] | pest or weed control at 500 g/ha [5] [%] | pest or weed control at 500 g/ha [6] [%] | pest or weed control at 500 g/ha (Lolium perenne (LOLPE)) [%] | pest or weed control at 500 g/ha (Setaria faberi (SETFA)) [%]
N[C@H](CC[n+]1ccc(-c2ncccn2)cn1)C(=O)O.O=C(O)C(F)(F)F.O=C([O-])C(F)(F)F [Compound 1.029, [(1R)-1-carboxy-3-(4-pyrimidin-2-ylpyridazin-1-ium-1-yl)propyl]-ammonium 2,2,2-trifluoroacetate] | 100 | 100 | 100 | 90 | – | – | – | – | –
N[C@@H](CC[n+]1ccc(-c2ncccn2)cn1)C(=O)O.O=C(O)C(F)(F)F.O=C([O-])C(F)(F)F [Compound 1.035, [(1S)-1-carboxy-3-(4-pyrimidin-2-ylpyridazin-1-ium-1-yl)propyl]-ammonium 2,2,2-trifluoroacetate] | 100 | 100 | 100 | 90 | 90 | 60 | 90 | 20 | 100
